Assay results from patent publication US20170290774A1, “NEUROKININ-1 RECEPTOR ANTAGONIST COMPOSITION FOR TREATMENT OF DISEASES AND CONDITIONS OF THE RESPIRATORY TRACT” (PLUS VITECH, S.L., priority 2014, published 2017).

Assay: Tissue concentration of aprepitant by HPLC after oral or inhaled administration to rabbits
Assay type: in vivo, New Zealand albino rabbits
Details: for concentration at 7 days: New Zealand White, rabbit, lung, seven days
Experimental: Herein, New Zealand albino rabbits (New Zealand White Rabbits) with an initial average weight of approximately 3 kg were used. The rabbits were fed ad libitum and were monitored daily to check that signs of toxicity had not appeared. […] This mixture was administered as an aerosol to the airways of a group of 3 of said rabbits (Group 5) in a dose of 0.05 mg/kg body weight per day, to another group of three rabbits (Group 6) in a dose of 0.1 mg/kg body weight per day, to another group of three rabbits (group 7) in a dose of 0.2 mg/kg body weight per day and to another group of three rabbits (Group 8) in a dose of 0.4 mg/kg body weight per day. […] After seven days of treatment all animals were euthanized and necropsied. […] Samples were taken at the peripheral level of the lung parenchyma, just below the pleural surface. Tissue samples were also taken from the nasal cavity, pharynx, larynx and bronchi. […] The average is the arithmetic average calculated for each row or column of each table. The SD is the standard deviation, calculated for each row or column of each table.

concentration at 7 days (left superior lobe, po, 10 mg/kg/day, Lung concentration of aprepitant LSPI (left superior lobe), Group 1, oral 10 mg/kg per day, individual cases): 500 ng/g
concentration at 7 days (left superior lobe, po, 10 mg/kg/day, Lung concentration of aprepitant LSPI, Average ± SD of cases, Group 1, oral 10 mg/kg per day): 600 ng/g
concentration at 7 days (left superior lobe, po, 40 mg/kg/day, Lung concentration of aprepitant LSPI (left superior lobe), Group 2, oral 40 mg/kg per day, individual cases): 5300 ng/g
concentration at 7 days (left superior lobe, po, 40 mg/kg/day, Lung concentration of aprepitant LSPI, Average ± SD of cases, Group 2, oral 40 mg/kg per day): 4300 ng/g
concentration at 7 days (left superior lobe, po, 80 mg/kg/day, Lung concentration of aprepitant LSPI (left superior lobe), Group 3, oral 80 mg/kg per day, individual cases): 3900 ng/g
concentration at 7 days (left superior lobe, po, 80 mg/kg/day, Lung concentration of aprepitant LSPI, Average ± SD of cases, Group 3, oral 80 mg/kg per day): 4700 ng/g
concentration at 7 days (right inferior lobe, inhaled, 0.4 mg/kg/day, Lung concentration of aprepitant LIPD (right inferior lobe), Group 8, inhalation (aerosol, olive oil) 0.4 mg/kg per day, individual cases): 9900 ng/g
concentration at 7 days (right inferior lobe, inhaled, 0.4 mg/kg/day, Lung concentration of aprepitant LIPD, Average ± SD of cases, Group 8, inhalation (aerosol, olive oil) 0.4 mg/kg per day): 10100 ng/g
concentration at 7 days (right inferior lobe, po, 10 mg/kg/day, Lung concentration of aprepitant LIPD (right inferior lobe), Group 1, oral 10 mg/kg per day, individual cases): 600 ng/g
concentration at 7 days (right inferior lobe, po, 10 mg/kg/day, Lung concentration of aprepitant LIPD, Average ± SD of cases, Group 1, oral 10 mg/kg per day): 800 ng/g
concentration at 7 days (right inferior lobe, po, 40 mg/kg/day, Lung concentration of aprepitant LIPD (right inferior lobe), Group 2, oral 40 mg/kg per day, individual cases): 3300 ng/g
concentration at 7 days (right inferior lobe, po, 40 mg/kg/day, Lung concentration of aprepitant LIPD, Average ± SD of cases, Group 2, oral 40 mg/kg per day): 3500 ng/g
concentration at 7 days (right inferior lobe, po, 80 mg/kg/day, Lung concentration of aprepitant LIPD (right inferior lobe), Group 3, oral 80 mg/kg per day, individual cases): 5100 ng/g
concentration at 7 days (right inferior lobe, po, 80 mg/kg/day, Lung concentration of aprepitant LIPD, Average ± SD of cases, Group 3, oral 80 mg/kg per day): 5500 ng/g
concentration at 7 days (right middle lobe, inhaled, 0.4 mg/kg/day, Lung concentration of aprepitant LMPD (right middle lobe), Group 8, inhalation (aerosol, olive oil) 0.4 mg/kg per day, individual cases): 10000 ng/g
concentration at 7 days (right middle lobe, inhaled, 0.4 mg/kg/day, Lung concentration of aprepitant LMPD, Average ± SD of cases, Group 8, inhalation (aerosol, olive oil) 0.4 mg/kg per day): 10000 ng/g
concentration at 7 days (right middle lobe, po, 10 mg/kg/day, Lung concentration of aprepitant LMPD (right middle lobe), Group 1, oral 10 mg/kg per day, individual cases): 1100 ng/g
concentration at 7 days (right middle lobe, po, 10 mg/kg/day, Lung concentration of aprepitant LMPD, Average ± SD of cases, Group 1, oral 10 mg/kg per day): 1300 ng/g
concentration at 7 days (right middle lobe, po, 40 mg/kg/day, Lung concentration of aprepitant LMPD (right middle lobe), Group 2, oral 40 mg/kg per day, individual cases): 4200 ng/g
concentration at 7 days (right middle lobe, po, 40 mg/kg/day, Lung concentration of aprepitant LMPD, Average ± SD of cases, Group 2, oral 40 mg/kg per day): 4000 ng/g
concentration at 7 days (right middle lobe, po, 80 mg/kg/day, Lung concentration of aprepitant LMPD (right middle lobe), Group 3, oral 80 mg/kg per day, individual cases): 4800 ng/g
concentration at 7 days (right middle lobe, po, 80 mg/kg/day, Lung concentration of aprepitant LMPD, Average ± SD of cases, Group 3, oral 80 mg/kg per day): 5200 ng/g
concentration at 7 days (right middle lobe, po, 100 mg/kg/day, Lung concentration of aprepitant LMPD (right middle lobe), Group 4, oral 100 mg/kg per day, individual cases): 5800 ng/g
concentration at 7 days (right superior lobe, inhaled, 0.4 mg/kg/day, Lung concentration of aprepitant LSPD (right superior lobe), Group 8, inhalation (aerosol, olive oil) 0.4 mg/kg per day, individual cases): 10100 ng/g
concentration at 7 days (right superior lobe, inhaled, 0.4 mg/kg/day, Lung concentration of aprepitant LSPD, Average ± SD of cases, Group 8, inhalation (aerosol, olive oil) 0.4 mg/kg per day): 9900 ng/g
concentration at 7 days (right superior lobe, po, 10 mg/kg/day, Lung concentration of aprepitant LSPD, Average ± SD of cases, Group 1, oral 10 mg/kg per day): 900 ng/g
concentration at 7 days (right superior lobe, po, 40 mg/kg/day, Lung concentration of aprepitant LSPD (right superior lobe), Group 2, oral 40 mg/kg per day, individual cases): 3200 ng/g
concentration at 7 days (right superior lobe, po, 40 mg/kg/day, Lung concentration of aprepitant LSPD, Average ± SD of cases, Group 2, oral 40 mg/kg per day): 3500 ng/g
concentration at 7 days (right superior lobe, po, 80 mg/kg/day, Lung concentration of aprepitant LSPD (right superior lobe), Group 3, oral 80 mg/kg per day, individual cases): 4900 ng/g
concentration at 7 days (right superior lobe, po, 80 mg/kg/day, Lung concentration of aprepitant LSPD, Average ± SD of cases, Group 3, oral 80 mg/kg per day): 4100 ng/g
concentration at 7 days (right superior lobe, po, 100 mg/kg/day, Lung concentration of aprepitant LSPD (right superior lobe), Group 4, oral 100 mg/kg per day, individual cases): 5100 ng/g
Structure (SMILES): C[C@@H](OC1OCCN(Cc2nc(=O)[nH][nH]2)C1c1ccc(F)cc1)c1cc(C(F)(F)F)cc(C(F)(F)F)c1 (stereo in doubt) [Aprepitant, 5-([(2R,3S)-2-((R)-1-[3,5-bis(trifluoromethyl)phenyl]ethoxy)-3-(4-fluorophenyl)morpholino]methyl)-1H-1,2,4-triazol-3(2H)-one]
relationship between dose and concentration in the lungs (inhalation, 0.05 to 0.4 mg/kg per day): proportional to the dose administered by inhalation
